The results in this text go back to ChEMBL document CHEMBL1150604, “Convolutindole A and convolutamine H, new nematocidal brominated alkaloids from the marine bryozoan Amathia convoluta” (2002).

Molecules are shown by their SMILES. Calls of active or inactive are those of the source. The rule behind the calls is not given here.

The test system of one assay is Heteropogon contortus. Briefly: Nematocidal activity against […] McMaster assessed as inhibition of nematode larval development after 5 days. Format: functional.
For assay [1], the system named is Bacillus subtilis. To be noted: ATCC 6633, 50 ug/ml.
Description: Antibacterial activity against Bacillus subtilis ATCC 6633 at 50 ug/ml after 24 hrs by agar-based microtiter plate assay
Assay [2] has as its system Saccharomyces cerevisiae. The settings on record: ATCC 9763, 50 ug/ml.
Description: Antifungal activity against Saccharomyces cerevisiae ATCC 9763 at 50 ug/ml after 24 hrs by agar-based microtiter plate assay
Assay [3] deals with Bacillus subtilis. Briefly: Antibacterial activity against Bacillus subtilis ATCC 6633 after 24 hrs by agar-based microtiter plate assay. Format: functional.
The test system of assay [4] is Saccharomyces cerevisiae. Briefly: Antifungal activity against Saccharomyces cerevisiae ATCC 9763 at 200 ug/ml after 24 hrs by agar-based microtiter plate assay. It counts as functional, organism-based.
In assay [5] the test system is Bacillus subtilis. Briefly: Antibacterial activity against Bacillus subtilis ATCC 6633 at 100 ug/ml after 24 hrs by agar-based microtiter plate assay. Format: functional, organism-based.

Regarding `c1ccc([C@H]2CN3CCSC3=N2)cc1` [LEVAMISOLE], in the assay with Heteropogon contortus, the LD99 came out at 1.6 µg/mL. Besides, the LD99 entry with Bacillus subtilis [1] and in the assay on Saccharomyces cerevisiae [2] was “inactive” in each case.
Consider `COc1c(Br)cc(Br)c2c(CCN(C)C)c(Br)n(OC)c12` [CONVOLUTINDOLE A], for which the LD99 was determined as 0.39 µg/mL in the assay with Heteropogon contortus and 50 µg/mL with Bacillus subtilis [3]. Moreover, the LD99 entry in the assay with Saccharomyces cerevisiae [4] was “inactive”.
For `CNCCc1c(Br)c(Br)c(Br)c(OC)c1OC` [CONVOLUTAMINE H], the LD99 in the assay on Heteropogon contortus amounted to 0.2 µg/mL. Besides, the LD99 result in the assay with Bacillus subtilis [5] and in the assay with Saccharomyces cerevisiae [4] was “inactive” in each case.
